# Values quoted from earlier work, collected in patent publication US7563785B2, “Quetiapine analogs and methods of use thereof” (Hypnion, Inc., priority 2004, dated 2009).
# Target: T1, human recombinant M1 expressed in CHO cells (Homo sapiens, UniProt P11229)
# T1 construct: purchased PerkinElmer, Inc., Wellesley, Mass; host or cells: CHO cells
# T1 sequence (P11229 1-460): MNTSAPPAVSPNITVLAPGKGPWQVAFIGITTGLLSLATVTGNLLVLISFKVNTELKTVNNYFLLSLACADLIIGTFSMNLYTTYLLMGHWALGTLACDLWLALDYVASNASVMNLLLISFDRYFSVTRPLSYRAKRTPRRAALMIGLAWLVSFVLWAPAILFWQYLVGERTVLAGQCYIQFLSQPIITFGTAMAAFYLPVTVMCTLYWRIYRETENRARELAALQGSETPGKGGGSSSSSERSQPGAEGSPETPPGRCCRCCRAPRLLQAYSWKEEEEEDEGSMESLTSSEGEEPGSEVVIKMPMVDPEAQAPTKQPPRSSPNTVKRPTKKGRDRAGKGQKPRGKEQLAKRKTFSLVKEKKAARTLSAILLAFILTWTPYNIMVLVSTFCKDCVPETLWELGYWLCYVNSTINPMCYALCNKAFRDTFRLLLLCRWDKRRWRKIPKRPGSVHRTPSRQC
# Details: reference compounds; read-out: Ki of reference compounds in M1 binding assay
smiles,measurement,value
C[N+]1(C)CCC(OC(=O)C(c2ccccc2)c2ccccc2)CC1 [4-DAMP methiodide],Ki,0.27 nM
